Among the targets are NS3h 1b (con1); NS3h 1b (J4); NS3h 2a (JFH1).
Assay in all cases: HCV NS3 helicase unwinding inhibitors, late-stage follow-up, selectivity assay, biochemical, real-time fluorescence, genotypes 1b J4, 1b con1, 2a JFH1 (AID 485301)
Holding throughout (conditions): Cy5 molecular beacon fluorescence

In PubChem BioAssay AID485301 (The Scripps Research Institute Molecular Screening Center, 2010) one finds IC50 data, which are given here for eight compounds.

Activity calls are given as the source filed them.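 Rule for the calls: active = IC50 of 10 µM or less against the helicase of at least one HCV strain tested; inactive = the rest.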

`COc1cccc(-n2c(SCc3cc(=O)oc4cc(O)c(O)cc34)nc3ccccc3c2=O)c1`: the IC50 at NS3h 1b (con1), on NS3h 1b (J4) and on NS3h 2a (JFH1) was > 500 µM (inactive) in each case.
With `Cc1cc(N2C(=O)C(O)=C(C(=O)c3ccc(C)o3)C2c2ccc(OCc3ccccc3)cc2)no1` (stereo not drawn), the IC50 on NS3h 1b (con1), at NS3h 1b (J4) and on NS3h 2a (JFH1) was > 500 µM (inactive) in each case.
Regarding `COc1cc(C2C(C(=O)c3ccc(C)o3)=C(O)C(=O)N2c2cc(C)on2)ccc1OCc1ccccc1` (stereo not drawn), the IC50 on NS3h 1b (con1), on NS3h 1b (J4) and at NS3h 2a (JFH1) was > 500 µM (inactive) throughout.
With `CCCCCOc1ccc(C2C(C(=O)c3ccc(C)o3)=C(O)C(=O)N2c2cc(C)on2)cc1` (stereo not drawn), the IC50 at NS3h 1b (con1), at NS3h 1b (J4) and at NS3h 2a (JFH1) was > 500 µM (inactive) in each case.
In the case of `COc1ccc(/C=N/NC(=O)c2cc(O)c(O)c(O)c2)cc1COc1ccc(C(=O)OCC(C)C)cc1`, the IC50 at NS3h 1b (con1) and on NS3h 1b (J4) was > 500 µM (inactive) each time.
As to `Cc1ccc(C(=O)C2=C(O)C(=O)N(Cc3ccco3)C2c2cccc(Cl)c2)o1` (stereo not drawn), the IC50 on NS3h 1b (con1), on NS3h 1b (J4) and on NS3h 2a (JFH1) was > 500 µM (inactive) throughout.
In the case of `COc1ccc(C=NNC(=O)c2cc(O)c(O)c(O)c2)cc1COc1ccc(C(=O)OCC(C)C)cc1`, the IC50 at NS3h 1b (con1), on NS3h 1b (J4) and on NS3h 2a (JFH1) was > 500 µM (inactive) throughout.
For the compound `CCOc1cccc(C2C(C(=O)c3ccc(C)o3)=C(O)C(=O)N2Cc2ccccc2)c1` (stereo not drawn), the IC50 at NS3h 1b (con1), on NS3h 1b (J4) and at NS3h 2a (JFH1) was > 500 µM (inactive) throughout.
